pIC50: −log10 of the molar value.
Legend:
[1] = target: MAT2A (Homo sapiens (Human), UniProt P31153); test: Biochemical test: inhibition of MAT2A enzyme activity (phosphate detection, OD620); settings: MAT2A his-tag; 150 minutes enzymatic reaction
Excerpt: Experimental principle: MAT2A can catalyze the conversion of L-methionine and ATP into SAM, inorganic phosphate, and inorganic diphosphate. By adding a chromogenic reagent to the enzymatic reaction system, the content of inorganic phosphates in a sample can be quantitatively detected, thereby characterizing the enzymatic activity of MAT2A.
Experimental material: Tris (Life Science #0497); BSA (Sigma #); MAT2A his-tag (BPS #71401-1); 384 well plate (Corning #3765); L-methionine (Admas #1100469); ATP (Sigma #A7699); MgCl2 (Sigma #M8266); KCl (Sigma #7447-40-7); Brij35 (Sigma #B4184); EDTA (Sigma #E1644)
1. 1×Assaybuffer (buffer composition: Tris, KCl, MgCl2, BSA, Brij35, and EDTA; the solvent was ultrapure water) was prepared. MAT2A his-tag enzyme solution (containing 1.3 μL of MAT2A enzyme and 998.7 μL of 1×Assaybuffer per 1000 μL) and substrate mixed solution (containing 5 μL of ATP, 1.3 μL of L-methionine, and 993.7 μL of 1×Assaybuffer per 1000 μL) were prepared using 1×AssayBuffer.
2. Preparation of compound concentration gradient: The test compound was tested with a starting concentration of 10 μM, and 10 equimolar concentrations were set according to a 3-fold dilution. Specifically, firstly, the compound was diluted into 10 different concentrations of series solutions in a 384 well plate (with final detection concentrations of 10, 3.33, 1.11, 0.37, 0.123, 0.041, 0.0137, 0.0046, 0.0015, and 0.0005 μM), and then 250 nL of the above series solutions was transferred to the 384 well reaction plate using an ultrasonic pipetting system Echo550 for later use. 250 nL of 100% DMSO was added into a negative control well and a positive control well, respectively. Double well test.
3. 15 μL of MAT2A his-tag enzyme solution was added into both the compound well and the positive control well; and 15 μL of 1×Assaybuffer was added into the negative control well.
4. The 384 well plate reaction plate was centrifuged at 1000 rpm for 60 seconds, shaken, mixed well, and incubated for 15 minutes. 10 μL of substrate mixed solution was added into each experimental well of the 384 well reaction plate to initiate the reaction.
5. The 384 well reaction plate was centrifuged at 1000 rpm for 60 seconds, shaken, mixed well, and incubated for 150 minutes.
6. 50 μL of enzyme reaction termination solution Biomol was added into all experimental wells of the 384 well reaction plate to terminate the reaction, centrifuged at 1000 rpm for 60 seconds, and incubated for 15 minutes. OD620 was read and data was processed.
Data analysis: the inhibition rate (%) of the compound was calculated and fitted to obtain the IC50 of the tested compound. Calculation method for compound inhibition rate: Compound inhibition rate (%)=(OD620_max−OD620_stample)/(OD620_max−OD620_min)×100, wherein OD620_stample was the absorbance value of the sample well; OD620 min was the absorbance value of the positive control well, indicating the reading of the wells without enzyme activity; and OD620_max was the absorbance value of the negative control well, indicating the reading of the well without compound inhibition.

[2] = tested on: KP-4 cells; test: Human pancreatic cancer KP-4 cell activity inhibition test (CellTiter-Glo); type: cell-based; settings: 5 days
Experimental: Experimental principle: after co-incubating the MAT2A inhibitor to be tested with KP-4 cells for a period of time, a cell viability measurement method based on ATP content is used to characterize the effect of the tested compound on cell viability.
Experimental material: KP-4 cells (JCRB #JCRB0182); IMDM (Gibco 912440061); fetal bovine serum (EXCELL #FND500); penicillin-streptomycin (Gibco #15140-122); 0.25% Typsin-EDTA (Gibco #252(101-072); DMSO (Sigma #D2650); 96 well plate (Corning #3610); CellTiter-Glo (Promega #G7571)
1. KP-4 cells were cultured in IMDM culture medium containing 10% e fetal bovine serum and 1% penicillin-streptomycin at 37° C. and 5% CO2 in a cell culture incubator. Only cells in logarithmic growth phase were used for subsequent experiments.
2. The cells in logarithmic growth phase were inoculated into a 96 well plate, with a seeding quantity of 500 cells per well, and incubated overnight in a cell culture incubator at 37′C and 5% CO2.
3. The compound was dissolved with DMSO, diluted with culture medium to 10 different concentrations (approximately […]), 3333.3, 1111.1, 370, 123, 41.2, 13.7, 4.6, 1.5, and 0.5 nM) before adding it to the cell plate, and cultured at 37° C. and 5% CO2 for 5 days.
4. CellTiter-Glo reagent was added, and an enzyme-linked immunosorbent assay reader was used to detect cell viability.
Data analysis: the inhibition rate (%) of the compound was calculated and fitted to obtain the IC50 of the tested compound. Calculation method for compound inhibition rate: Compound inhibition rate (%)=(Signal_max−Signal_sample)/(Signal_max−Signal_min)×100, wherein Signal_sample was the sample well reading, indicating the cell activity of the compound inhibition well; Signal_min was the positive control well reading, indicating the background activity without cells; and Signal_max was the negative control well reading, indicating the cell activity of the well without compound inhibition.

MAT2A, sequence (P31153 whole entry): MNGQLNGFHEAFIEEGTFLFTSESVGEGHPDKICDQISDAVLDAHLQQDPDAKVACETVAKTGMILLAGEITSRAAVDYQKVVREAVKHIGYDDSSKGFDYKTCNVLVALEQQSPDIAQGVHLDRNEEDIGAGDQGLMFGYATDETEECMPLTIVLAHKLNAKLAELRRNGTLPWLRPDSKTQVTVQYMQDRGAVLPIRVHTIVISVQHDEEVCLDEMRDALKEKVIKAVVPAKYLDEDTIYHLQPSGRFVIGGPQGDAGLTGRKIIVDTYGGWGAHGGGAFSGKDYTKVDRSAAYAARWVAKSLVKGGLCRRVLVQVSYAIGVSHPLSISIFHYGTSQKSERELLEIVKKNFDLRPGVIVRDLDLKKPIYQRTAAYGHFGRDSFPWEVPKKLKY

Structure (SMILES) | pIC50 [1] | pIC50 ([2]; Homo sapiens, 120 h) | pIC50 [2]
COc1ccc(-c2c(OCC(F)(F)F)c3cn[nH]c3n(-c3ccc4nn(C)cc4c3)c2=O)cc1 [Compound 12] | 7.92 | 7.93 | 
CCOc1c(-c2ccc(OC)cc2)c(=O)n(-c2ccc3ncn(C)c3c2)c2[nH]ncc12 [Compound 15] | 7.82 | 6.80 | 
CCOc1c(-c2ccc(F)cc2)c(=O)n(-c2ccc3nn(C)cc3c2)c2[nH]ncc12 [Compound 17] | 7.86 | 7.74 | 
CCOc1c(-c2ccc(OC(F)F)cc2)c(=O)n(-c2ccc3nn(CC)cc3c2)c2[nH]ncc12 [Compound 19] | 7.78 |  | 8.13
CCOc1c(-c2ccc(OC(F)F)cc2)c(=O)n(-c2ccc3nn(CCO)cc3c2)c2[nH]ncc12 [Compound 20] | 8.01 |  | 6.65
CCOc1c(-c2ccc(OC(F)F)cc2)c(=O)n(-c2ccc3ncn(C)c3c2)c2[nH]ncc12 [Compound 22] | 7.80 |  | 7.55
CCOc1c(-c2ccc(OC(F)F)cc2)c(=O)n(-c2ccc3nncn3c2)c2[nH]ncc12 [Compound 26] | 7.87 | 6.18 | 
Cn1cc2cc(-n3c(=O)c(-c4ccc(OC(F)F)cc4)c(OCC(F)(F)F)c4cn[nH]c43)ccc2n1 [Compound 27] | 7.77 | 8.17 | 
Cn1cc2cc(-n3c(=O)c(-c4ccc(Cl)cc4)c(OCC(F)(F)F)c4cn[nH]c43)ccc2n1 [Compound 28] | 7.82 | 8.28 | 
COc1ccc(-c2c(OCC(F)(F)F)c3cn[nH]c3n(-c3ccc4nn(C)cc4c3)c2=O)cn1 [Compound 29] | 7.91 | 7.87 | 
CCOc1c(-c2ccc(Cl)cc2)c(=O)n(-c2ccc3ncn(C)c3c2)c2[nH]ncc12 [Compound 33] | 7.83 | 7.38 | 
Cn1cnc2ccc(-n3c(=O)c(-c4ccc(Cl)cc4)c(OCC(F)(F)F)c4cn[nH]c43)cc21 [Compound 36] | 7.77 | 7.41 | 
CCOc1c(-c2ccc(OC(F)F)cc2)c(=O)n(-c2ccc3nn(C4COC4)cc3c2)c2[nH]ncc12 [Compound 37] | 7.96 | 7.44 | 
CCOc1c(-c2ccc(OC(F)F)cc2)c(=O)n(-c2ccc3nn(C4CNC4)cc3c2)c2[nH]ncc12 [Compound 38] | 7.73 | 6.83 | 
CCOc1c(-c2ccc(OC(F)F)cc2)c(=O)n(-c2ccc3nn(C)cc3n2)c2[nH]ncc12 [Compound 41] | 7.90 | 7.94 | 
CCOc1c(-c2ccc(OC(F)F)cc2)c(=O)n(-c2ccc3nn(C)cc3c2)c2nn(C)cc12 [Compound 45] | 7.98 | 7.05 | 
CCOc1c(-c2ccc(C(F)(F)F)nc2)c(=O)n(-c2ccc3nn(C)cc3c2)c2[nH]ncc12 [Compound 46] | 7.82 | 7.22 | 
CCOc1c(-c2ccc(C3CC3)nc2)c(=O)n(-c2ccc3nn(C)cc3c2)c2[nH]ncc12 [Compound 47] | 7.83 | 8.18 | 
Cn1cc2cc(-n3c(=O)c(-c4ccc(F)cc4)c(OCC(F)(F)F)c4cn[nH]c43)ccc2n1 [Compound 49] | 7.75 | 7.24 | 
Cn1cc2cc(-n3c(=O)c(-c4ccc(Cl)cc4)c(OCC4CC4)c4cn[nH]c43)ccc2n1 [Compound 50] | 7.87 | 7.67 | 
Cn1cc2cc(-n3c(=O)c(-c4ccc(F)cc4)c(OCC4CC4)c4cn[nH]c43)ccc2n1 [Compound 51] | 7.80 | 7.45 | 

Structure (SMILES) | pIC50 [1] | pIC50 ([2]; Homo sapiens, 120 h) | pIC50 [2]
Cc1ccc(-c2c(OCC(F)(F)F)c3cn[nH]c3n(-c3ccc4nn(C)cc4c3)c2=O)cn1 [Compound 52] | 7.75 | 8.05 | 
Cn1cc2cc(-n3c(=O)c(-c4ccc(C5CC5)nc4)c(OCC(F)(F)F)c4cn[nH]c43)ccc2n1 [Compound 53] | 7.80 | 7.71 | 
CCOc1c(-c2ccc(Br)cc2)c(=O)n(-c2ccc3nn(C)cc3c2)c2[nH]ncc12 [Compound 54] | 7.89 | 7.72 | 
CCOc1c(-c2ccc(Cl)cc2)c(=O)n(-c2ccc3nn(C)cc3c2)c2cn[nH]c12 [Compound 55] | 7.78 | 8.60 | 
CCCOc1c(-c2ccc(Cl)nc2)c(=O)n(-c2ccc3nn(C)cc3c2)c2[nH]ncc12 [Compound 58] | 7.83 | 8.46 | 
CCOc1c(-c2ccc(Cl)cn2)c(=O)n(-c2ccc3nn(C)cc3c2)c2[nH]ncc12 [Compound 62] | 7.74 | 6.74 | 
Cn1cc2cc(-n3c(=O)c(-c4ccc(Cl)cc4)c(NCC(F)(F)F)c4cn[nH]c43)ccc2n1 [Compound 63] | 7.74 | 8.62 | 
CCOc1c(-c2ccc(Cl)cc2)c(=O)n(-c2ccc3nn(C)c(C)c3c2)c2[nH]ncc12 [Compound 66] | 7.86 | 7.90 | 
CCOc1c(-c2ccc(Cl)cc2)c(=O)n(-c2ccc3nn(C)cc3n2)c2[nH]ncc12 [Compound 84] | 7.68 | 7.60 | 
CCOc1c(-c2ccc(Cl)cc2)c(=O)n(-c2ccc3nn(C4COC4)cc3c2)c2[nH]ncc12 [Compound 90] | 7.74 | 7.49 | 
CCOc1c(-c2ccc(C(F)(F)F)nc2)c(=O)n(-c2ccc3nn(C4COC4)cc3c2)c2[nH]ncc12 [Compound 92] | 7.72 | 6.55 | 
O=c1c(-c2ccc(Cl)cc2)c(OCC(F)(F)F)c2cn[nH]c2n1-c1ccc2nn(C3COC3)cc2c1 [Compound 93] | 7.79 | 8.82 | 
Cn1cc2nc(-n3c(=O)c(-c4ccc(Cl)cc4)c(OCC4CC4)c4cn[nH]c43)ccc2n1 [Compound 96] | 7.75 | 7.49 | 
Cn1cc2nc(-n3c(=O)c(-c4ccc(Cl)cc4)c(OCC(F)(F)F)c4cn[nH]c43)ccc2n1 [Compound 99] | 7.79 | 7.06 | 
CCOc1c(-c2ccc(C(F)(F)F)nc2)c(=O)n(-c2ccc3nn(CC)cc3c2)c2[nH]ncc12 [Compound 102] | 7.69 | 7.39 | 
Cn1cc2cc(-n3c(=O)c(-c4ccc(C(F)(F)F)nc4)c(OCC4CC4)c4cn[nH]c43)ccc2n1 [Compound 104] | 7.80 | 8.08 | 
CCNc1c(-c2ccc(Cl)cc2)c(=O)n(-c2ccc3nn(C)cc3n2)c2[nH]ncc12 [Compound 105] | 7.71 | 7.23 | 
CCNc1c(-c2ccc(C(F)(F)F)nc2)c(=O)n(-c2ccc3nn(C)cc3c2)c2[nH]ncc12 [Compound 106] | 7.54 | 6.63 | 
Cn1cc2nc(-n3c(=O)c(-c4ccc(Cl)cc4)c(NCC4CC4)c4cn[nH]c43)ccc2n1 [Compound 107] | 7.78 | 7.14 | 
Cn1cc2cc(-n3c(=O)c(-c4ccc(C(F)(F)F)nc4)c(NCC4CC4)c4cn[nH]c43)ccc2n1 [Compound 108] | 7.76 | 7.18 | 
